Measurements: ChEMBL document CHEMBL3217669, “Activation of a silent phenazine biosynthetic gene cluster reveals a novel natural product and a new resistance mechanism against phenazines” (Medchemcomm, 2012)
Active and inactive are the calls of the source. No cut-off for these calls is given here.

How the values were obtained:
Type in all cases: functional, organism-based
[1] = tested on: Streptomyces coelicolor; experiment: Antibacterial activity against Streptomyces coelicolor M512 assessed as growth inhibition up to 0.5 umol after 48 hrs
[2] = tested on: Bacillus subtilis; experiment: Antibacterial activity against Bacillus subtilis ATCC 14893 assessed as growth inhibition at 0.5 umol after overnight incubation
[3] = tested on: Escherichia coli; experiment: Antibacterial activity against Escherichia coli K-12 assessed as growth inhibition at 0.5 umol after overnight incubation

| SMILES | growth inhibition (GI) [1] | growth inhibition (GI) [2] | growth inhibition (GI) [3] |
| --- | --- | --- | --- |
| NC(=O)CC[C@H](NC(=O)c1cccc2nc3ccccc3nc12)C(=O)O | inactive | inactive | inactive |
| O=C(O)c1cccc2nc3ccccc3nc12 | inactive | Active | inactive |
